Reference: patent US9949971B2, “Therapeutic combinations of a BTK inhibitor, a PI3K inhibitor and/or a JAK-2 inhibitor” (Acerta Pharma B.V., priority 2014, dated 2018)

How the values were obtained:
[1] = system: signals through the B cell receptor (CD69 on gated CD19+ B cells); test: Whole blood inhibition of B cell receptor signals (anti-IgD induced CD69 on CD19+ B cells, flow cytometry); type: cell-based; conditions: whole blood of four healthy donors, 2 h incubation, anti-human IgD 10 μg/mL 18 h
Experimental: Blood from four healthy donors was incubated for 2 hours with the compounds shown over a concentration range, and then stimulated with anti-human IgD [10 μg/mL] for 18 hours. The mean fluorescent intensity (MFI) of CD69 (and CD86, data not shown) on gated CD19+ B cells was measured by flow cytometry.

GPVI = GPVI platelet aggregation (Convulxin-induced); type: cell-based, human; conditions: for inhibition of GPVI platelet aggregation: human platelets, CVX-induced
Experimental: GPVI platelet aggregation was measured for Formula (XVIII) and Formula XX-A (ibrutinib). Blood was obtained from untreated humans, and platelets were purified from […] by centrifugation. Cells were resuspended to a final concentration of 350,000/μL in buffer containing 145 mmol/L NaCl, 10 mmol/L HEPES, 0.5 mmol/L Na2HPO4, 5 mmol/L KCl, 2 mmol/L MgCl2, 1 mmol/L CaCl2, and 0.1% glucose, at pH 7.4. Stock solutions of […] were prepared on the day of experimentation and added to platelet suspensions 5 minutes (37° C., 1200 rpm) before the induction of aggregation. Aggregation was assessed with a Chronolog Lumi-Aggregometer (model 540 VS; Chronolog, Havertown, Pa.) and permitted to proceed for 6 minutes after the addition of agonist. The results are reported as maximum percent change in light transmittance from baseline with platelet buffer used as a reference.
In FIG. 97, the results of CVX-induced (250 ng/mL) human platelet aggregation results before and 15 minutes after administration of the BTK inhibitors to 6 healthy individuals are shown.

B cell lymphoma = test: veterinary clinical trial in canine lymphoma; type: in vivo, dog; conditions: companion dogs with B cell lymphoma
NK cells [2] = test: NK cell degranulation/ADCC whole blood assay with obinutuzumab; type: cell-based, human; conditions: whole blood pretreated 1 hour, MEC-1 cells opsonised with obinutuzumab 1 μg/mL, 4 hours, n=3
Experimental: Degranulation in whole blood was performed as follows. […] Exponentially growing cells were used. On the day of the experiment, 8 mL of blood was drawn from a normal volunteer into a test tube containing desirudin to obtain a final concentration of 50 μg/mL. A white blood cell (WBC) count of whole blood was performed. […] 170 μL aliquots of unmanipulated whole blood were incubated with 10 μL BTK inhibitors or X-VIVO 15 medium for one hour into a plate. […] The samples were placed in a 5% CO2 incubator for 4 hours at 37° C.
After 4 hours, the samples were mixed gently and 50 μL aliquots were removed from each well and placed in fluorescence-activated cell sorting (FACS) test tubes. A 20 μL aliquot of anti-CD56-APC antibody and anti-CD107a-PE antibody was added. The samples were incubated for 20 minutes at room temperature in the dark. An aliquot of 2 mL of FACS lysing solution (BD Biosceinces) was added. The samples were again incubated for 5 minutes, and then centrifuged at 2000 rpm for 5 minutes. Supernatant was discarded and the cell pellet was resuspended in 500 μL of PBS. The samples were analyzed on the flow cytometer for CD107a^+ NK cells (CD56^+).

NK cells [3] = test: rituximab ADCC mediated by NK cells; type: cell-based
Excerpt: H. E. Kohrt, et al., Blood 2014, 123, 1957-60.

BCR = test: in vivo potency: BCR activation markers CD69 and CD86 after IgM stimulation; parameters: species or system mouse; conditions: mice gavaged, 3 hours post-dose, BCR stimulated with IgM, flow cytometry
Experimental: Mice were gavaged at increasing drug concentration and sacrificed at one time point (3 hours post-dose). BCR is stimulated with IgM and the expression of activation markers CD69 and CD86 are monitored by flow cytometry to determine EC50values.
CD86 and CD69 are cell surface proteins that are BCR activation markers. […] BCR was stimulated with IgM and the expression of activation marker CD69 and CD86 are monitored by flow cytometry and to determine EC50 values.

CYP3A4 = CYP3A4 (Homo sapiens, UniProt P08684); test: In vitro loss of parent drug as catalyzed by CYPs; nonclinical CYP interaction studies; type: in vitro ADME
[4] = system: mouse, rat, dog, rabbit, monkey, and human hepatocytes; test: In vitro metabolism studies in hepatocytes with 14C-labeled compound; type: in vitro ADME
[5] = Glutathione binding and depletion in vitro; type: in vitro ADME
[6] = system: NK cells and monocytic MDSC subsets; test: Flow cytometry of peripheral blood cell subsets in CLL patients, predose vs 28 days; type: in vivo, human; conditions: patients with falling ALC counts; after 28 days of dosing
Experimental: PBMCs were stained with monoclonal antibodies conjugated to fluorescent tags (flourochromes) to identify cell subsets via flow cytometry. Non-viable cells were excluded from the analysis using the dye 7-aminoactinomycin D (7-AAD). To produce the metric of percent change, the following steps were taken. First, each cell subset was defined by hierarchical flow cytometry gating. Then, the change in frequency (between day 1 and day 28) was calculated for each cell subset. MDSC subsets were measured as a % of all myeloid cells. T cell subsets were measured as a % of all CD3^+ cells, and NK cells were measured as a % of all live CD45^+ cells. […] A cycle is 28 days. A trend is observed wherein patients with decreasing ALC % had increasing MDSC (monocytic) %. This may include patients who had quickly resolving lymphocytosis and those with no initial lymphocytosis. […] This may include patients who had quickly resolving lymphocytosis and those having no initial lymphocytosis. The effects in FIG. 107 to FIG. 110 are observed in multiple cohorts, at doses including 100 mg BID, 200 mg QD, and 400 mg QD. In FIG. 111 and FIG. 112, the effects on NK cells and MDSC cells are compared to a number of other markers versus % change in ALC at C1D28 and C2D28. These other markers include CD4+ T cells, CD8+ T cells, CD4+/CD8+ T cell ratio, NK-T cells, PD-1+ CD4+ T cells, and PD-1+ CD8+ T cells. […]

BTK = molecular target: T1, BTK (Mus musculus, UniProt P35991); test: Molecular probe assay of irreversible BTK occupancy in MDSCs from tumor bearing PDA mice; type: in vivo; conditions: 15 mg/kg BID, Day 8, 4 hours post dose (N=5)
T1 construct: MDSCs were purified from tumor bearing PDA mice; endogenous in cells; host or cells: granulocytic and monocytic MDSCs from tumor bearing PDA mice
Excerpt: A molecular probe assay was used to calculate the percent irreversible occupancy of total BTK.

EGFR = EGFR (Homo sapiens, UniProt P00533); test: in vitro EGFR phosphorylation in A431 cells; conditions: 10 μM, A431 human epidermoid cancer cell line
[7] = study of respiratory function (GLP safety pharmacology); conditions: rats, doses through 300 mg/kg (the highest dose level)
[8] = functional observation battery (GLP safety pharmacology); conditions: rats, doses through 300 mg/kg (the highest dose level)
[9] = system: human platelet-mediated thrombosis; test: in vivo human thrombus formation in the VWF HA1 mice model (laser injury); conditions: human platelets preincubated with BTK inhibitor, laser-induced injury
Experimental: Purified human platelets were preincubated with various concentrations of the BTK inhibitors (0.1 μM, 0.5 μM, or 1 μM) or DMSO and then administered to VWF HA1 mice, followed by laser-induced thrombus formation.
The objective of this study was to evaluate in vivo thrombus formation in the presence of BTK inhibitors.

previously treated CLL = conditions: Phase 1, monotherapy; cited from earlier work
[10] = in vivo; cited from earlier work

CYP3A4, sequence (P08684 whole entry): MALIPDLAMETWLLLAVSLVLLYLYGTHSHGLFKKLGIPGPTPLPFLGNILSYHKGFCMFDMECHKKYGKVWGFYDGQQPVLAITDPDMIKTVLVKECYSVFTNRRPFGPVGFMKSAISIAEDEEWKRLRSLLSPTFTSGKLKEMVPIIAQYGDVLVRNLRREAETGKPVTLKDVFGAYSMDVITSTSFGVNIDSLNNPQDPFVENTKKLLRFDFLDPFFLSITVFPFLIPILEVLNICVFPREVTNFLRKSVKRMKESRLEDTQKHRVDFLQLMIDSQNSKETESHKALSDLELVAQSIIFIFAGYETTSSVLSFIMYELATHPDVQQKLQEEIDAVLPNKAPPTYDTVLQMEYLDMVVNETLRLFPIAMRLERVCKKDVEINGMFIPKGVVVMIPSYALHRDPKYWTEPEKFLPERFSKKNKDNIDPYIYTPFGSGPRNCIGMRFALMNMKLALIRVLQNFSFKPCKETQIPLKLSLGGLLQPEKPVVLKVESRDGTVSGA
EGFR, sequence (P00533 25-1210): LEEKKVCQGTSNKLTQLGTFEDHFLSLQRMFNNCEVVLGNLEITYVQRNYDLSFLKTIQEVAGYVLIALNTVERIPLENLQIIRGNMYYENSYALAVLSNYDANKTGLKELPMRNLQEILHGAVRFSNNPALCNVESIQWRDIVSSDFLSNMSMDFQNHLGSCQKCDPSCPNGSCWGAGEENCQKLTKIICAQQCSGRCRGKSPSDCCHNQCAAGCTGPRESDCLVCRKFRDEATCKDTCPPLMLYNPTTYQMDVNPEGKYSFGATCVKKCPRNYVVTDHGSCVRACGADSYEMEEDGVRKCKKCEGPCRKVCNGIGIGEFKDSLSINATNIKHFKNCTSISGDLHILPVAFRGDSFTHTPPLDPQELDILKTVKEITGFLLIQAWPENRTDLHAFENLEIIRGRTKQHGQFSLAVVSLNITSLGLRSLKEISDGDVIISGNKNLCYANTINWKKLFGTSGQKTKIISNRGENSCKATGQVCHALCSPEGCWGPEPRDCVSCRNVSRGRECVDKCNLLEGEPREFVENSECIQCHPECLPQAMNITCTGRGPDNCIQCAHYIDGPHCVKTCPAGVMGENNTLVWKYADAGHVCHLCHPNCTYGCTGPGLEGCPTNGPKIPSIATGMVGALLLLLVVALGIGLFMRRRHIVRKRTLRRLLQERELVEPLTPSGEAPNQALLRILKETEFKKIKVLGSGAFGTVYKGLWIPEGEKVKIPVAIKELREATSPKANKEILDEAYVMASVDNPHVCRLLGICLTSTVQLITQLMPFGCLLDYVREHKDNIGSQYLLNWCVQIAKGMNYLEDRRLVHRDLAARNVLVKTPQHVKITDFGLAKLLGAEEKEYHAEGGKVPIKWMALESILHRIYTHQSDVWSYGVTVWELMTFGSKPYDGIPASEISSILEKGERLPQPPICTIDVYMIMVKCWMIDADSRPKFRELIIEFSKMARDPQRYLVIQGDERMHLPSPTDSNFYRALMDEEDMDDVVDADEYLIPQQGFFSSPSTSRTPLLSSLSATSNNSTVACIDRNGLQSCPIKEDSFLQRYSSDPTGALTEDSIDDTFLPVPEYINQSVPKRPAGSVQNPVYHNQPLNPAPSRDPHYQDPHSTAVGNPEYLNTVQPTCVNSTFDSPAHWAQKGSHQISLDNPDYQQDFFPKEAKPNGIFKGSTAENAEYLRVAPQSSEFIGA
T1 sequence (P35991 whole entry): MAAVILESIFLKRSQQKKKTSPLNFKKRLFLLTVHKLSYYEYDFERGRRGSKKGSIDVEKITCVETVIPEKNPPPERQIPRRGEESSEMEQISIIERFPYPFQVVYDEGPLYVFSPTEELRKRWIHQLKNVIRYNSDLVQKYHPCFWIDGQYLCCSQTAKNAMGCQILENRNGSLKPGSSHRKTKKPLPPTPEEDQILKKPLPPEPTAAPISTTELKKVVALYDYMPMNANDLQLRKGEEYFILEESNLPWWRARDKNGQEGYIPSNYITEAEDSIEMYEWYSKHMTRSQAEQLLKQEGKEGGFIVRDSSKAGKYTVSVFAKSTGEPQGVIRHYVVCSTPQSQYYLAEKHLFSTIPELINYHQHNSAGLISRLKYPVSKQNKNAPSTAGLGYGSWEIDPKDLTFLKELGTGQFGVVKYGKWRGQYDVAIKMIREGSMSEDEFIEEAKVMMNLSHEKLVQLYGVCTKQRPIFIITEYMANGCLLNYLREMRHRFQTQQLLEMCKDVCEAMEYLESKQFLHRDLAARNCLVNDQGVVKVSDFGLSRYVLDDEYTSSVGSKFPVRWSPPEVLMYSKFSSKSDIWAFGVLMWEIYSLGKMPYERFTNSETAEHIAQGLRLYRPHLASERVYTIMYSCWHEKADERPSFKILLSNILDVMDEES

With `C=CC(=O)Nc1cccc(Nc2nc(Nc3ccc(OCCOC)cc3)ncc2F)c1` [CC-292] the EC50 [1] was 0.121 µM.
With `CC#CC(=O)N1CCC[C@H]1c1nc(-c2ccc(C(=O)Nc3ccccn3)cc2)c2c(N)nccn12` [Formula (XVIII), (S)-4-(8-amino-3-(1-(but-2-ynoyl)pyrrolidin-2-yl)imidazo[1,5-a]pyrazin-1-yl)-N-(pyridin-2-yl)benzamide] the IC50 (GPVI; Platelet, purified human platelets, Convulxin (CVX)) was 1.15 µM, the “inhibition of GPVI platelet aggregation” value (GPVI) was “does not” and the “complete responses (CR)” value (B cell lymphoma) was “not observed”. The “effect on percentage of CD56+/CD107a+ NK cells (obinutuzumab-stimulated NK cell degranulation)” value (NK cells [2]) was “minimal effect”, the “antagonism of rituximab ADCC effects mediated by NK cells” value (NK cells [3]) was “does not antagonize rituximab ADCC effects” and the “in vivo potency at inhibiting expression of activation markers CD69 and CD86, versus ibrutinib” value (BCR) was “more potent”. For the same molecule, the “Metabolism by CYPs (loss of parent drug)” value (CYP3A4; in vitro) was “metabolized by CYP3A4”, the “Potential for clinical drug-drug interactions through CYP substrates” value (CYP3A4; nonclinical CYP interaction studies) was “very unlikely to cause clinical drug-drug interactions” and the “Metabolites formed in hepatocytes” value ([4]; 14C-labeled compound, mouse, rat, dog, rabbit, monkey, human hepatocytes) was “two mono-oxidized metabolites and a glutathione conjugate”. For the same molecule, the Unique human metabolite ([4]; hepatocytes) was “No unique human metabolite was identified”, the “Glutathione binding / depletion” value [5] was “binds to glutathione but does not deplete glutathione” and the “NK cells and monocytic MDSC subsets in peripheral blood” value [6] was “increase in frequency”. For the same molecule, the “Irreversible occupancy of total BTK in granulocytic and monocytic MDSCs” value (BTK) was “Complete BTK occupancy”, the “inhibition of in vitro EGFR phosphorylation” value (EGFR) was “no inhibition” and the respiratory function [7] was “no treatment-related adverse effects”. The “neurobehavioral effects or body temperature” value [8] was “no adverse effects”.
In the case of `C=CC(=O)Nc1cccc(Nc2nc(Nc3ccc(OCCOC)cc3)ncc2F)c1` [Formula (XXVII), N-(3-((5-fluoro-2-((4-(2-methoxyethoxy)phenyl)amino)pyrimidin-4-yl)amino)phenyl)acrylamide], the “effect on human platelet-mediated thrombus formation” value [9] is reported as “effect similar to Formula XX-A (ibrutinib)”.
In the case of “obinutuzumab: type II glycoengineered CD20 monoclonal antibody”, the “MRD-negative complete response, number” value (previously treated CLL) is listed as 1, the Response rate (previously treated CLL) is listed as 62% and the “Grade 3 IRRs” value [10] is listed as 15%. For the same molecule, the “Grade 3 reactions among hypotension cases” value [10] was 25%, the “Grade 4 IRRs” value [10] was “no Grade 4” and the “IRR cases developing symptoms of hypotension” value [10] was 60%. For the same molecule, the “Patients developing IRR” value [10] was 95%, the “Patients experiencing IRRs” value [10] was “all patients” and the “Patients experiencing all grade AE” value [10] was 100%.
With `C=CC(=O)N1CCC[C@@H](n2nc(-c3ccc(Oc4ccccc4)cc3)c3c(N)ncnc32)C1` [ibrutinib, 1-[(3R)-3-[4-amino-3-(4-phenoxyphenyl)-1H-pyrazolo[3,4-d]pyrimidin-1-yl]piperidin-1-yl]prop-2-en-1-one] the “inhibition of GPVI platelet aggregation” value (GPVI) was “significantly inhibits GPVI platelet aggregation” and the “antagonism of rituximab ADCC effects mediated by NK cells” value (NK cells [3]) was “undesirably antagonizes rituximab ADCC effects”.
